Experimental data: article PMC9271048, “Probing strigolactone perception mechanisms with rationally designed small-molecule agonists stimulating germination of root parasitic weeds” (Nature Communications, 2022)
Read-outs that look alike come from different tables or passages of the source.

Key:
[1] = Chemical reactivity analysis (HPLC, methanol/PBS pH 7.4); type: physicochemical; conditions: for reactivity in methanol/PBS: 1:3 methanol and PBS (10 mM) pH 7.4
Method: Chemical reactivity is an important factor in the bioactivity of natural and synthetic SLs.
One hundred twenty microliters of sample solution was added to a solution of PBS (10 mM, pH 7.4, 810 μL) and methanol (270 μL). The solution was stirred vigorously for 30 s and then transferred to HPLC vial, and the vial was stored at 26 ± 1 °C. […] The analytical column was Extend-C18 (4.6 mm × 150 mm × 5 μm). The mobile phases were CH3CN and H2O (containing 0.1% HCO2H), VCH3CN:VH2O = 50:50, with a flow rate of 1 mL/min, and an injection volume of 5 μL. The percentage of remaining compounds in the solution was calculated from the peak area. The half-life times (t1/2) of samples were calculated.

[2] = target: ShHTL7 (Striga hermonthica, UniProt A0A0M3PNA2); assay: biochemical; type: binding
Method: We used a sensitive, high-throughput Surface plasmon resonance (SPR) method to examine the binding affinities of the 51 candidates to the recombinant ShHTL7 protein, which was immobilized on the CM5 sensor chip. rac-GR24 was used as a positive control.
The interactions of small molecules with recombinant ShHTL7 were evaluated using the Biacore T200 system (GE Healthcare, USA) at 25 °C[47]. The purified ShHTL7 protein was immobilized on a CM5 sensor chip using the standard amine coupling procedure. […] PBS-P (10 mM phosphate buffer, 2.7 mM KCl, 137 mM NaCl, 0.05% Surfactant P20) containing 0.5% DMSO was used as the running buffer. For the screening experiments, candidates with different structures at 50 μM in the running buffer were injected individually at a flow rate of 30 μL min^−1. For binding affinity studies, compounds with different concentrations in running buffer were used. During the experiments, both the contact and dissociation times were set as 1 min. Data analysis was performed using the Biacore Evaluation Software (T200 Version 2.0). The affinity values (KD) were obtained by the kinetics analysis or the steady-state affinity method.

[3] = tested on: ShHTLs (10 HTL proteins in S. hermonthica); assay: YLG-based competition assay on HTL proteins of S. hermonthica; type: biochemical, Striga hermonthica; conditions: Supplementary Fig. 27
Source text: In P. aegyptiaca, 5 KAI2s have been proposed as the SL receptors for the regulation of seed germination. […] The high sequence similarity may explain the consistency of these compounds in inducing germination in both S. hermonthica and P. aegyptiaca.
The excitation and emission wavelengths of YLG are 480 and 520 nm, respectively. We used a fluorescence spectrophotometer (CARY Eclipse) to detect the fluorescence intensity change of YLG during the enzymatic hydrolysis assay process. All the testing compounds and YLG were dissolved in DMSO and prepared as stock solutions just before use. […] The changes of fluorescence at 520 nm of each well were recorded every 1 min for 30 min. Using the reaction mixture without adding enzyme and tested compounds as the background control. After subtracting the background hydrolysis, a linear fluorescence increase in 8 min was used for further inspection. The IC50 values were determined via fitting relative inhibition percentages with the varying concentrations of compounds in Microsoft Excel.
Supplementary Fig. 27. Binding of compounds 4a, (R)- and (S)-4a, and 4g-i to the HTL proteins in S. hermonthica and KAI2 protein homologs in P. aegyptiaca. In the competitive inhibitory activity assay, YLG (3 µM) was used as the fluorogenic substrate. Error bar indicates SD (n = 3 biologically independent experiments).
(1 picture or pasted object on this page, not shown here)

[4] = tested on: P. aegyptiaca seeds; assay: P. aegyptiaca seed germination assay; type: in vivo, Phelipanche aegyptiaca; set-up: P. aegyptiaca seed germination activity, source data average: unit of the concentration uncertain; conditions: Supplementary Fig. 9b
Method: P. aegyptiaca seeds were harvested from Xinjiang province, China in 2017. The seeds were surface sterilized using 1% NaClO solution for 2 min and then washed with distilled water six times. For seed germination assay, about 20 pieces of glass fiber-filter paper discs (15 mm diameter, Whatman GF/B) were placed separately on two layers of filter papers (9 cm diameter, Whatman) in a Petri dish. Five milliliters of distilled water was added to each Petri dish to wet the papers. Approximately 40–90 sterilized seeds were spread onto each glass fiber-filter paper disc. After the seeds were conditioned in the dark at 25 °C for 4 days[48], glass fiber-filter paper discs were blotted dry on filter papers (9 cm) and transferred to the wells of 24-well cell culture plates. The testing compounds were dissolved in acetone and diluted with H2O (VH2O/Vacetone = 999/1) just before use[49]. rac-GR24 and 1‰ acetone solution were used as positive and negative controls, respectively. One hundred microliters of the test solution was added to each well of the plates, and all treatments were performed in three biological repeats. The plates were sealed and incubated in the dark at 25 °C for a week. The experiments were performed at least three times. The germinated seeds were observed by using an electronic magnifier at ×20 magnification.

[5] = Supplementary Fig. 10 source data, methanol/PBS pH 7.4, 26 °C
[6] = Supplementary Table 7, binding affinities between ShHTL7 and agonists by SPR, read-out: KD/μM
[7] = ShHTL2, YLG competition, read-out: IC50, replicate 1
[8] = ShHTL2, YLG competition, read-out: IC50, replicate 2
[9] = ShHTL2, YLG competition, read-out: IC50, replicate 3
[10] = ShHTL2, average of 3 replicates, read-out: IC50, average
[11] = ShHTL3, YLG competition, read-out: IC50, replicate 1
[12] = ShHTL3, YLG competition, read-out: IC50, replicate 2
[13] = ShHTL3, YLG competition, read-out: IC50, replicate 3
[14] = ShHTL3, average of 3 replicates, read-out: IC50, average
[15] = ShHTL4, YLG competition, read-out: IC50, replicate 1
[16] = ShHTL4, YLG competition, read-out: IC50, replicate 2
[17] = ShHTL4, YLG competition, read-out: IC50, replicate 3
[18] = ShHTL4, average of 3 replicates, read-out: IC50, average
[19] = ShHTL5, YLG competition, read-out: IC50, replicate 1
[20] = ShHTL5, YLG competition, read-out: IC50, replicate 2
[21] = ShHTL5, YLG competition, read-out: IC50, replicate 3
[22] = ShHTL5, average of 3 replicates, read-out: IC50, average
[23] = ShHTL6, YLG competition, read-out: IC50, replicate 1
[24] = ShHTL6, YLG competition, read-out: IC50, replicate 2
[25] = ShHTL6, YLG competition, read-out: IC50, replicate 3
[26] = ShHTL6, average of 3 replicates, read-out: IC50, average
[27] = ShHTL8, YLG competition, read-out: IC50, replicate 1
[28] = ShHTL8, YLG competition, read-out: IC50, replicate 2
[29] = ShHTL8, YLG competition, read-out: IC50, replicate 3
[30] = ShHTL8, average of 3 replicates, read-out: IC50, average
[31] = ShHTL9, YLG competition, read-out: IC50, replicate 1
[32] = ShHTL9, YLG competition, read-out: IC50, replicate 2
[33] = ShHTL9, YLG competition, read-out: IC50, replicate 3
[34] = ShHTL9, average of 3 replicates, read-out: IC50, average
[35] = ShHTL10, YLG competition, read-out: IC50, replicate 1
[36] = ShHTL10, YLG competition, read-out: IC50, replicate 2
[37] = ShHTL10, YLG competition, read-out: IC50, replicate 3
[38] = ShHTL10, average of 3 replicates, read-out: IC50, average
[39] = ShHTL11, YLG competition, read-out: IC50, replicate 1
[40] = ShHTL11, YLG competition, read-out: IC50, replicate 2
[41] = ShHTL11, YLG competition, read-out: IC50, replicate 3
[42] = ShHTL11, average of 3 replicates, read-out: IC50, average
[43] = 0.1 (unit uncertain) as printed

Chain of ShHTL7 (A0A0M3PNA2 entry or part of it): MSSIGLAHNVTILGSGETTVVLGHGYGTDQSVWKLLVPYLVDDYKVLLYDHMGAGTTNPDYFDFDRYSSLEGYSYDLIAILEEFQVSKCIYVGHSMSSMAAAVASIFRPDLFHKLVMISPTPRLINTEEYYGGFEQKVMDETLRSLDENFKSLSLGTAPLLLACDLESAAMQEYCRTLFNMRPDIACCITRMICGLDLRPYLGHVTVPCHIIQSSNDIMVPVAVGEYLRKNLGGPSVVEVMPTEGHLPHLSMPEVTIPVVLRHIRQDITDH

CC1=CC(CC(=O)N2CCN(C(=O)COc3ccc(Br)cc3C)CC2)OC1=O (stereo not drawn) [4i]
reactivity in methanol/PBS [1]: no apparent hydrolysis was observed in 6 days
half-life time (t1/2), source data average [1, 5]: >144 h
Kd [2, 6]: 2.93 ± 0.087 µM
IC50 [3, 7]: 50.6 µM
IC50 [3, 8]: 70.1 µM
IC50 [3, 9]: 65.1 µM
IC50 [3, 10]: 61.9 µM
IC50 [3, 11]: > 100 µM
IC50 [3, 12]: > 100 µM
IC50 [3, 13]: > 100 µM
IC50 [3, 14]: > 100 µM
IC50 [3, 15]: 15 µM
IC50 [3, 16]: 21.2 µM
IC50 [3, 17]: 16.4 µM
IC50 [3, 18]: 17.5 µM
IC50 [3, 19]: 48.9 µM
IC50 [3, 20]: 42.2 µM
IC50 [3, 21]: 43 µM
IC50 [3, 22]: 44.7 µM
IC50 [3, 23]: 79.2 µM
IC50 [3, 24]: 55 µM
IC50 [3, 25]: 69.4 µM
IC50 [3, 26]: 67.9 µM
IC50 [3, 27]: 72.8 µM
IC50 [3, 28]: 71.1 µM
IC50 [3, 29]: 75.4 µM
IC50 [3, 30]: 73.1 µM
IC50 [3, 31]: 22.6 µM
IC50 [3, 32]: 24.8 µM
IC50 [3, 33]: 12.7 µM
IC50 [3, 34]: 20.1 µM
IC50 [3, 35]: 69.6 µM
IC50 [3, 36]: 67.6 µM
IC50 [3, 37]: 57.8 µM
IC50 [3, 38]: 65 µM
IC50 [3, 39]: 91.9 µM
IC50 [3, 40]: 101 µM
IC50 [3, 41]: 86 µM
IC50 [3, 42]: 93 µM
P. aegyptiaca seed germination activity, source data average [4, 43]: 6.798%
P. aegyptiaca seed germination activity, source data average ([4]; 1 (unit uncertain) as printed): 17.2667%
P. aegyptiaca seed germination activity, source data average ([4]; 10 (unit uncertain) as printed): 39.4856%

CC1=CC(OC(=O)N2CCN(C(=O)COc3ccc(Br)cc3C)CC2)N(C)C1=O (stereo not drawn) [4h]
half-life time (t1/2) ([1]; 1:3 methanol and PBS (10 mM) pH 7.4, HPLC): 1.1 h
half-life time (t1/2), source data average [1, 5]: 1.095 h
Kd [2, 6]: 12.1 ± 0.94 µM
IC50 [3, 7]: 72.3 µM
IC50 [3, 8]: 78.3 µM
IC50 [3, 9]: 79.2 µM
IC50 [3, 10]: 76.6 µM
IC50 [3, 11]: > 100 µM
IC50 [3, 12]: > 100 µM
IC50 [3, 13]: > 100 µM
IC50 [3, 14]: > 100 µM
IC50 [3, 15]: 12.7 µM
IC50 [3, 16]: 14.6 µM
IC50 [3, 17]: 8.97 µM
IC50 [3, 18]: 12.1 µM
IC50 [3, 19]: 32.9 µM
IC50 [3, 20]: 39.4 µM
IC50 [3, 21]: 42.1 µM
IC50 [3, 22]: 38.1 µM
IC50 [3, 23]: > 100 µM
IC50 [3, 24]: > 100 µM
IC50 [3, 25]: > 100 µM
IC50 [3, 26]: > 100 µM
IC50 [3, 27]: 65.9 µM
IC50 [3, 28]: 81.2 µM
IC50 [3, 29]: 80.4 µM
IC50 [3, 30]: 75.8 µM
IC50 [3, 31]: > 100 µM
IC50 [3, 32]: > 100 µM
IC50 [3, 33]: > 100 µM
IC50 [3, 34]: > 100 µM
IC50 [3, 35]: 47.3 µM
IC50 [3, 36]: 41.8 µM
IC50 [3, 37]: 41.6 µM
IC50 [3, 38]: 43.6 µM
IC50 [3, 39]: > 100 µM
IC50 [3, 40]: > 100 µM
IC50 [3, 41]: > 100 µM
IC50 [3, 42]: > 100 µM
P. aegyptiaca seed germination activity, source data average [4, 43]: 6.8801%
P. aegyptiaca seed germination activity, source data average ([4]; 1 (unit uncertain) as printed): 41.0534%
P. aegyptiaca seed germination activity, source data average ([4]; 10 (unit uncertain) as printed): 82.4464%

CC1=CC(OC(=O)N2CCN(C(=O)COc3ccc(Br)cc3C)CC2)CC1=O (stereo not drawn) [4g]
reactivity in methanol/PBS [1]: no apparent hydrolysis was observed in 6 days
half-life at 0.5 mM ([1]; methanol/phosphate-buffered saline mixture, Supplementary Fig. 10 source data, methanol/PBS pH 7.4, 26 °C, read-out: half-life time (t1/2), source data average (converted)): > 144 h
Kd [2]: 34.8 ± 3.9 µM
IC50 [3, 7]: 65.2 µM
IC50 [3, 8]: 66 µM
IC50 [3, 9]: 64.5 µM
IC50 [3, 10]: 65.2 µM
IC50 [3, 11]: 40.5 µM
IC50 [3, 12]: 33.3 µM
IC50 [3, 13]: 28.5 µM
IC50 [3, 14]: 34.1 µM
IC50 [3, 15]: 19.2 µM
IC50 [3, 16]: 17.8 µM
IC50 [3, 17]: 16.1 µM
IC50 [3, 18]: 17.7 µM
IC50 [3, 19]: 40.1 µM
IC50 [3, 20]: 35.7 µM
IC50 [3, 21]: 41.8 µM
IC50 [3, 22]: 39.2 µM
IC50 [3, 23]: 53 µM
IC50 [3, 24]: 37.4 µM
IC50 [3, 25]: 61.5 µM
IC50 [3, 26]: 50.6 µM
IC50 [3, 27]: 61 µM
IC50 [3, 28]: 62 µM
IC50 [3, 29]: 51.8 µM
IC50 [3, 30]: 58.3 µM
IC50 [3, 31]: 31.2 µM
IC50 [3, 32]: 38.7 µM
IC50 [3, 33]: 46.2 µM
IC50 [3, 34]: 38.7 µM
IC50 [3, 35]: 49.6 µM
IC50 [3, 36]: 54.6 µM
IC50 [3, 37]: 55.2 µM
IC50 [3, 38]: 53.1 µM
IC50 [3, 39]: 55.9 µM
IC50 [3, 40]: 54.7 µM
IC50 [3, 41]: 58.2 µM
IC50 [3, 42]: 56.3 µM
P. aegyptiaca seed germination activity, source data average [4, 43]: 11.4951%
P. aegyptiaca seed germination activity, source data average ([4]; 1 (unit uncertain) as printed): 63.9751%
P. aegyptiaca seed germination activity, source data average ([4]; 10 (unit uncertain) as printed): 69.9023%
